# Data reported in PubChem BioAssay (NCI).
#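 Results reflect a 48-hour exposure of cells in 96-well plates to compound at five concentrations. Here, GI50 denotes the concentration required for 50% inhibition of growth. At the TGI there is no net growth.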
# Key:
# Test in all cases: NCI anticancer screen, dose series, 48 h
# SK-MEL-28 melanoma = tested on: SK-MEL-28 melanoma
# SK-OV-3 ovarian = tested on: SK-OV-3 ovarian
# OVCAR-4 ovarian = tested on: OVCAR-4 ovarian
# SNB-75 CNS = tested on: SNB-75 CNS
# SF-295 CNS = tested on: SF-295 CNS
# UACC-257 melanoma = tested on: UACC-257 melanoma
# TK-10 renal = tested on: TK-10 renal
# SF-539 CNS = tested on: SF-539 CNS
# M14 melanoma = tested on: M14 melanoma
# SW-620 colon = tested on: SW-620 colon
# COLO 205 colon = tested on: COLO 205 colon
# SN12C renal = tested on: SN12C renal
# U251 CNS = tested on: U251 CNS
# A498 renal = tested on: A498 renal
# PC-3 prostate = tested on: PC-3 prostate
# DU-145 prostate = tested on: DU-145 prostate
# A549 NSCLC = tested on: A549 NSCLC
# HOP-92 NSCLC = tested on: HOP-92 NSCLC
# NCI-H226 lung = tested on: NCI-H226 lung
# MOLT-4 leukemia = tested on: MOLT-4 leukemia
# NCI-H460 lung = tested on: NCI-H460 lung
# NCI-H23 lung = tested on: NCI-H23 lung
# BT-549 breast = tested on: BT-549 breast
# HCT-15 colon = tested on: HCT-15 colon
# SF-268 CNS = tested on: SF-268 CNS
# HCT-116 colon = tested on: HCT-116 colon
# UACC-62 melanoma = tested on: UACC-62 melanoma
# HL-60(TB) leukemia = tested on: HL-60(TB) leukemia
# IGROV1 ovarian = tested on: IGROV1 ovarian
smiles,measurement,setting,value
CCC(=C/[C@H](C)C/C=C/C(C)=C/[C@@H](C)C(=O)[C@@H](C)[C@H](O)[C@@H](C)CC)/C=C/[C@@H]1OC(=O)C=C[C@@H]1C,TGI,SK-MEL-28 melanoma,75.7 nM
same,GI50,SK-OV-3 ovarian,< 5 nM
same,TGI,SK-OV-3 ovarian,6500 nM
same,GI50,OVCAR-4 ovarian,< 5 nM
same,TGI,OVCAR-4 ovarian,6660 nM
same,GI50,SNB-75 CNS,< 5 nM
same,TGI,SNB-75 CNS,77.3 nM
same,GI50,SF-295 CNS,< 5 nM
same,TGI,SF-295 CNS,7490 nM
same,GI50,UACC-257 melanoma,< 5 nM
same,TGI,UACC-257 melanoma,8900 nM
same,GI50,TK-10 renal,< 5 nM
same,TGI,TK-10 renal,10700 nM
same,GI50,SF-539 CNS,< 5 nM
same,TGI,SF-539 CNS,< 5 nM
same,GI50,M14 melanoma,< 5 nM
same,TGI,M14 melanoma,< 5 nM
same,GI50,SW-620 colon,< 5 nM
same,TGI,SW-620 colon,3180 nM
same,GI50,COLO 205 colon,< 5 nM
same,TGI,COLO 205 colon,< 5 nM
same,GI50,SN12C renal,< 5 nM
same,TGI,SN12C renal,4320 nM
same,GI50,U251 CNS,< 5 nM
same,TGI,U251 CNS,2060 nM
same,GI50,A498 renal,< 5 nM
same,TGI,A498 renal,< 5 nM
same,GI50,PC-3 prostate,< 5 nM
same,TGI,PC-3 prostate,5940 nM
same,GI50,DU-145 prostate,< 5 nM
same,TGI,DU-145 prostate,5710 nM
same,GI50,A549 NSCLC,< 5 nM
same,TGI,A549 NSCLC,7020 nM
same,GI50,HOP-92 NSCLC,< 5 nM
same,TGI,HOP-92 NSCLC,< 5 nM
same,GI50,NCI-H226 lung,< 5 nM
same,TGI,NCI-H226 lung,< 5 nM
same,GI50,MOLT-4 leukemia,< 5 nM
same,TGI,MOLT-4 leukemia,< 5 nM
same,GI50,NCI-H460 lung,< 5 nM
same,TGI,NCI-H460 lung,53.3 nM
same,GI50,NCI-H23 lung,< 5 nM
same,TGI,NCI-H23 lung,4290 nM
same,GI50,BT-549 breast,< 5 nM
same,TGI,BT-549 breast,< 5 nM
same,GI50,HCT-15 colon,< 5 nM
same,TGI,HCT-15 colon,409 nM
same,GI50,SF-268 CNS,< 5 nM
same,TGI,SF-268 CNS,2190 nM
same,GI50,HCT-116 colon,< 5 nM
same,TGI,HCT-116 colon,< 5 nM
same,GI50,UACC-62 melanoma,< 5 nM
same,TGI,UACC-62 melanoma,243 nM
same,GI50,HL-60(TB) leukemia,< 5 nM
same,TGI,HL-60(TB) leukemia,< 5 nM
same,GI50,IGROV1 ovarian,92.6 nM
same,TGI,IGROV1 ovarian,7880 nM
